In US9656953B2, “Inhibition of cell proliferation” (University of South Florida, priority 2005, dated 2017):
Entries after “also recorded” stand apart in the source; their conditions may differ.

Legend:
[1] = test system: Human aortic endothelial cells (HAECs); experiment: Matrigel angiogenic tubule formation; assay type: cell-based; settings: 20 μM
Protocol: Matrigel assays. […] A total of 100 μl of thawed Matrigel was added to 96-well tissue culture plates, followed by incubation at 37° C. for 60 minutes to allow polymerization. […] Capillary tube formation assessed by using a Leica DMIL phase contrast microscope.
An experiment was performed to determine whether angiogenic tubule formation could be inhibited by the disclosed compounds.

[2] = test system: Rb phosphorylation (serines 807 and 811); experiment: Western blot of Rb phosphorylation, A549 cells; assay type: cell-based, human; settings: cells treated 18 hours, western blotting
Source text: Lysate preparation, pmmunoprecipitation, and pestern plotting.

[3] = test system: A375 melanoma cell line; experiment: BrdU incorporation, S-phase entry, A375; assay type: cell-based; settings: V600E B-Raf
Protocol: (§1) Proliferation assays. Bromodeoxyuridine (BrdU) labeling kits were obtained from Roche Biochemicals (Indianapolis, Ind.). Cells were plated in poly-D-lysine coated chamber slides at a density of 10,000 cells per well and rendered quiescent by serum starvation for 24 hours. Cells were then re-stimulated with serum in the presence or absence of the indicated drugs for 18 h. S-phase cells were visualized by microscopy and quantitated by counting 3 fields of 100 in quadruplicate.
A V600E mutation in the B-Raf oncogene is associated with 66% of melanomas and leads to an over-activation of phospho-Erk signaling. The A375 melanoma cell line harbors the V600E B-Raf mutation. Using the methods of the preceding examples, 3a was inhibited 58% of S-phase entry in this cell line.

[4] = test system: U2-OS cells; experiment: BrdU incorporation, S-phase entry, U2-OS; assay type: cell-based; settings: 20 μM, 18 hours, Rb wild type
Protocol: as §1
Given the selectivity of 3a described in FIGS. 1 and 2 above for disrupting the Rb:Raf-1 interaction, it was examined if 3a can inhibit the proliferation of cells and whether such an inhibition required a functional Rb gene.

[5] = test system: PC3 prostate cell line; experiment: BrdU proliferation assay, PC3; assay type: cell-based
Protocol: as §1
Prostate cell lines LNCaP and PC3 both contain mutations in K-Ras and PTEN genes.

[6] = test system: A549 cells; experiment: BrdU incorporation, S-phase entry, A549; assay type: cell-based, human; settings: 20 μM
Protocol: as §1
To further confirm that 3a requires a functional Rb to inhibit tumor cell proliferation, A549 cells (human epithelial lung carcinoma) were stably transfected with two different shRNA constructs (sh6 and sh8) to knock down Rb expression.

[7] = test system: A549 tumors; experiment: A549 xenograft in nude mice; assay type: in vivo; settings: for tumor size, A549 xenograft: vehicle 1039±128 mm^3
Protocol: Animal Studies. Nude mice (Charles River, Wilminton, Mass., USA) were maintained in accordance with Institutional Animal Care and Use Committee (IAUCUC) procedures and guidelines. A549 cells were harvested and resuspended in PBS, and then injected s.c. into the right and left flanks (10×10^6 cells per flank) of 8-week old female nude mice as reported previously (Sun 99). When tumors reached about 100-200 mm^3, animals were dosed intraperitoneally i.p. or orally by gavage with 0.1 mL solution once daily. […] The tumor volumes were determined by measuring the length (l) and the width (w) and calculating the volume (V=lw^2/2) as described previously (Sun 99). Statistical significance between control and treated animals were evaluated using Student's t-test.

[8] = test system: PANC1 cells; experiment: Soft agar assay, PANC1; assay type: cell-based
Protocol: Soft Agar Assay. Soft agar assays were done in triplicate in 12-well plates (Corning, Corning N.Y.). First, the bottom layer of agar (0.6%) was allowed to solidify at room temperature. Next the top layer of agar was (0.3%) was mixed with 5,000 cells per well and the indicated drug. The drugs were added twice weekly in complete media to the agar wells. Colonies were quantified by staining with MTT (3-(4,5-Dimethylthiazol-2-yl)-2,5-diphenyltetrazolium bromide) 1 mg/mL for 1 hour at 37° C.
Experiments were also carried out to examine the effect of 3a in inhibiting the adherence-independent growth of cancer cells in soft agar.

[9] = test system: cyclin E kinase activity; experiment: In vitro kinase assay, cyclin E; assay type: biochemical
Protocol: In vitro kinase assay. The kinase reaction for Raf-1 was carried out with 100 nanograms (ng) of Raf-1 (Upstate Signaling, Charlottesville, Va.), 0.5 μg of full-length Rb protein (QED Bioscience, San Diego, Calif.) as the substrate, 10 μM ATP, 10 μCi of [γ-^32P] ATP in the kinase assay buffer in the presence or absence of the drugs at 30° C. for 30 minutes. Cyclin D and E kinase assays are described in (Dasgupta 2004).

[10] = test system: A549 tumors; experiment: Immunohistochemistry staining of A549 xenograft tumors; assay type: in vivo, nude mice; settings: A549 tumors at end of treatment
Source text: Immunohistochemistry staining. Upon termination of xenograft anti-tumor experiments, tumors were removed and fixed in 10% neutral-buffered formalin before processing into paraffin blocks. Tissue sections (5 micrometers (μm) thick) were cut from the blocks and stained with Ki-67, CD31, TUNEL, and phospho-Rb antibodies. Paraffin sections were rehydrated to PBS and processed using the following protocols. Sections were rinsed in dH2O, and then subjected to microwave ‘antigen retrieval’ for 20 minutes on 70% power, with a 1 minute cooling period after every 5 minutes, in 0.01 M sodium citrate, pH 6.0 (Janssen P J, Brinkmann A O, Boersma W J, Van der Kwast T H. J Histochem Cytochem 1994; 42(8):1169-75; Shi S R, Key M E, Kalra K L. J Histochem Cytochem 1991; 39(6):741-748). Sections were cooled for 20 minutes, rinsed 3 times in dH2O, twice in PBS and incubated in 5% normal goat serum for 30 minutes. Sections were incubated in primary antibody for 1 hour in 5% normal goat serum, rinsed 3 times in PBS. For color development the slides were treated with ABC kit (Vector Labs, Burlingame, Calif.) rinsed in dH2O, and developed using DAB as chromogen. After a final rinse in dH2O, sections were lightly counterstained in hematoxylin, dehydrated, cleared and coverslipped. Tissue sections were stained with hematoxylin and eosin (H&E) using standard histological techniques. Tissue sections were also subjected to immunostaining for CD31 (BD Biosciences, San Diego, Calif., USA) using the avidin-biotin peroxidase complex technique. Mouse monoclonal antibody was used at 1:50 dilution following microwave antigen retrieval (four cycles of 5 min each on high in 0.1 M citrate buffer). Apoptotic cells were detected using DeadEnd Colorimetric TUNEL system (Promega, Madison, Wis.).
At the end of the drug treatment, the A549 tumors were removed from the mice and fixed in formalin or snap frozen in liquid nitrogen for further histochemical analysis. The tumors were analyzed by immunohistochemistry staining with hematoxylin and eosin (H&E), TUNEL, Ki-67, phospho-Rb (807,811), and CD-31. […] Tumors were homogenized and lysates were prepared to assess the inhibition of Rb:Raf-1 interaction in vivo.

SMILES: Cl.N=C(N)SCc1ccc(Cl)cc1Cl [Compound 3a]
- angiogenic tubule formation in matrigel [1]: inhibit angiogenic tubule formation; also recorded: significantly inhibited the angiogenic tubule formation
- Rb phosphorylation [2]: reduced Rb phosphorylation significantly; also recorded: marked reduction in Rb phosphorylation
- inhibition of S-phase entry, A375 [3]: 58%
- S-phase entry (BrdU), U2-OS [4]: inhibited S-phase entry
- inhibition of proliferation, PC3 [5]: 35%
- S-phase entry (BrdU), parental A549 [6]: arrests wild-type A549 cells; also recorded: very effective
- A549 tumor growth in words, 3a ([7]; 50 mpk/day i.p. or 150 mpk/day oral): completely inhibit tumor growth; also recorded: did not grow
- tumor size, A549 xenograft ([7]; 50 mpk/day i.p.): 144±20 mm^3
- tumor size, A549 xenograft ([7]; 150 mpk/day oral): 148±32 mm^3
- adherence-independent growth in soft agar, PANC1 [8]: significantly inhibited the growth
- cyclin E kinase activity [9]: does not inhibit; also recorded: did not affect the kinase activities
- apoptosis, TUNEL staining of tumors [10]: dose dependent increase in apoptosis
- microvasculature, CD31 staining of tumors [10]: reduction in microvasculature
- phospho-Rb staining of tumors [10]: reduction in phosphorylation of Rb
- proliferation, Ki-67 staining of tumors [10]: significant inhibition of proliferation
